Measurements published in PubChem BioAssay (NCI).
Several values for one entry are separate records, joined by “and”; a condition that tells them apart may be missing. Equal entries are not always repeated.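 Cells were grown in 96-well plates and exposed to each compound for 48 hours at five concentrations; endpoints were interpolated linearly between bracketing concentrations, or set to the highest concentration if not reached. GI50 is the concentration that inhibits growth by half. At the TGI there is no net growth.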

What was measured:
Assay in all cases: growth of human tumour cells (NCI), 48 h
KM20L2 colon = test system: KM20L2 colon
M19-MEL melanoma = test system: M19-MEL melanoma
LXFL 529 NSCLC = test system: LXFL 529 NSCLC
HOP-18 NSCLC = test system: HOP-18 NSCLC
SNB-78 CNS = test system: SNB-78 CNS
DMS 114 small cell lung = test system: DMS 114 small cell lung
RXF-631 renal = test system: RXF-631 renal
MDA-N = test system: MDA-N
XF 498 CNS = test system: XF 498 CNS

Row | SMILES | TGI (KM20L2 colon) | TGI (M19-MEL melanoma) | TGI (LXFL 529 NSCLC) | TGI (HOP-18 NSCLC) | TGI (SNB-78 CNS) [µM] | TGI (DMS 114 small cell lung) | TGI (RXF-631 renal) [µM] | TGI (MDA-N) [µM] | TGI (XF 498 CNS) [µM] | other results
1 | CCCCOC(=O)NC(=O)c1cn(CCSCCOC(=O)NCCCCCCNC(=O)OCCSCCn2cc(C(=O)NC(=O)OCCCC)c(=O)[nH]c2=O)c(=O)[nH]c1=O | > 100 µM | > 100 µM | > 100 µM | > 100 µM | > 100 | > 100 µM | > 100 | – | – | –
2 | COC(=O)C1(F)C(=O)NC(=O)NC1O (configuration not stated) | – | – | – | – | – | – | – | > 100 | – | –
3 | Fc1ccc(C2SCc3nc4ccccc4n32)cc1 (configuration not stated) | – | > 100 µM | > 100 µM | – | > 100 | > 100 µM | – | – | > 100 | –
4 | CCN(c1ccc(Br)cc1)c1c(Br)c(=O)nc2ccccn12 | > 100 µM | > 100 µM | > 100 µM | – | > 100 | > 100 µM | > 100 | – | > 100 | –
5 | COc1ccc(/C=C/C(=O)Oc2cc(O)cc(O)c2)cc1 | – | – | – | – | – | – | – | > 100 | – | –
6 | O=C(OCC1CO1)c1cccs1 (configuration not stated) | > 100 µM | > 100 µM | > 100 µM | – | > 100 | > 100 µM | > 100 | – | > 100 | –
7 | C1OC1CO[C@@H]1CO[C@H]2[C@@H]1OC[C@H]2OCC1CO1 (some centres not stated) | > 100 µM | > 100 µM | – | > 100 µM | > 100 | > 100 µM | – | – | > 100 | –
8 | CN1CC(C(=O)C2C(=O)c3ccccc3C2=O)C(=O)C(=O)C(C(=O)C2C(=O)c3ccccc3C2=O)C1 (configuration not stated) | – | – | – | – | – | > 100 µM | > 100 | – | > 100 | –
9 | CCN(CCCl)CCCNc1c2ccccc2nc2ccc(OC)cc12 | 2.2 µM | – | 1.7 µM | – | – | 1.76 µM | – | – | – | GI50 (XF 498 CNS): 381 µM; GI50 (M19-MEL melanoma): 323 µM; GI50 (SNB-78 CNS): 585 µM
10 | C/C(=N\N=C(/[Se])N1CC2CCC(CC2)C1)c1ccccn1 | 0.682 µM | 0.559 µM | 0.0256 µM | 1.98 µM | 2.88 | < 0.0229 µM | 3.88 | 2.6 | 0.0981 | –
11 | CC(=O)CCCCO | – | > 100 µM | > 100 µM | – | > 100 | > 100 µM | – | – | > 100 | –
12 | O=C(O)c1cc(N=Cc2ccccc2O)cc(C(=O)O)c1 | – | – | – | – | – | – | – | > 100 | – | –
13 | NC(N)=NNC(=O)CCCCCCCC(=O)NN=C(N)N | > 100 µM | > 100 µM | > 100 µM | – | > 100 | > 100 µM | > 100 | – | – | –
14 | Cc1ccc2c(c1)NC(=O)CC(c1ccccc1)=N2 | – | – | – | – | – | – | – | 60.7 | – | –
15 | CC(C)(C)C(=O)ON1N=NC2C3CC(OCc4ccccc4)(OCc4ccccc4)C(O3)C21 (configuration not stated) | 77.5 µM | 30 µM | 25.8 µM | 94.2 µM | > 100 | – | 82.1 | – | 33.5 | –
16 | c1ccc(-c2nc(-c3ccccc3)c(-c3ccccc3)[nH]2)cc1 | – | – | – | – | – | – | – | > 100 | – | –

Row | SMILES | TGI (KM20L2 colon) | TGI (M19-MEL melanoma) | TGI (LXFL 529 NSCLC) | TGI (HOP-18 NSCLC) | TGI (SNB-78 CNS) [µM] | TGI (DMS 114 small cell lung) | TGI (RXF-631 renal) [µM] | TGI (MDA-N) [µM] | TGI (XF 498 CNS) [µM] | other results
17 | COc1cccc(/C=C/c2cnc3ccccc3n2)c1OC | – | – | – | – | – | – | – | > 100 | – | –
18 | O=C(C(=O)N1CC2C=CC1CC2)c1c[nH]c2ccccc12 (configuration not stated) | > 100 µM | > 100 µM | > 100 µM | > 100 µM | > 100 | > 100 µM | > 100 | – | – | –
19 | CC(=O)OC1(C)C(=O)OC1(C)C(C)=O (configuration not stated) | > 100 µM | > 100 µM | > 100 µM | > 100 µM | > 100 | > 100 µM | > 100 | – | – | –
20 | NC(=O)C(c1ccccc1)N1CCOCC1 (configuration not stated) | > 100 µM | > 100 µM | > 100 µM | > 100 µM | > 100 | > 100 µM | – | – | – | –
21 | Cc1ccc(SC2=CC(=O)c3nc4ccccc4c4ccnc2c34)cc1 | – | – | – | – | – | – | – | > 75 | – | GI50 (MDA-N): 28.8 µM
22 | CC(=O)OCC1OC(OC2CC3C(C)(C)C(O)CC[C@]3(C)C3CCC45CC4(CC[C@H]5C(C)CC(O)C4OC4(C)C)[C@]23C)C(O)C(O)C1O (some centres not stated) | 15.6 µM and 24.2 µM | 10.6 µM and 12.6 µM | 12.2 µM and 12.6 µM | 13.6 µM and 17.5 µM | – | 11.3 µM and 21.3 µM | – | – | 14.3 | GI50 (KM20L2 colon): 11.9 µM; GI50 (M19-MEL melanoma): 3.7 µM; GI50 (LXFL 529 NSCLC): 2.92 µM; GI50 (HOP-18 NSCLC): 5.27 µM; GI50 (DMS 114 small cell lung): 6.7 µM
23 | O=C(CC(=O)N1N=C(N2c3ccccc3Sc3ccccc32)CC1c1ccccc1)Nc1ccc(Cl)cc1 (configuration not stated) | > 100 µM | > 100 µM | > 100 µM | > 100 µM | > 100 | > 100 µM | – | – | > 100 | –
24 | COc1cc(/C=C2\CCC(CN(C)C)C2=O)ccc1OC(=O)c1ccccc1 (configuration not stated) | 30.3 µM | 24.7 µM | 9 µM | 30.9 µM | 39.9 | 40.9 µM | 23.6 | 29.6 | 34.6 | –
25 | COc1cc2c(cc1O)CC13CCC(=O)N1CCc1cc(OC)c(O)c-2c13 (configuration not stated) | > 68.1 µM | > 68.1 µM | > 68.1 µM | > 68.1 µM | > 68.1 | > 68.1 µM | > 68.1 | – | – | –
26 | COc1ccc(/C=C\c2cc(OC)c(OC)c(OC)c2)cc1OC(=O)CCC(=O)O | – | – | – | – | – | – | – | > 100 | – | –
27 | CC#CC1/C(=C\C(=O)OC)CCCC1O (configuration not stated) | – | > 100 µM | – | – | > 100 | > 100 µM | – | – | > 100 | –
28 | Cc1cc(NS(=O)(=O)c2ccc(NC(=O)c3cccc4c(Nc5ccc(S(=O)(=O)N=C(N)N)cc5)c5ccccc5nc34)cc2)no1 | > 100 µM | – | > 100 µM | – | > 100 | – | > 100 | – | – | –
29 | CCOC(=O)C1SC(=Nc2ccc(Cl)c(Cl)c2)N=C1C (configuration not stated) | 78.8 µM | > 100 µM | > 100 µM | > 100 µM | – | – | > 100 | – | > 100 | –
30 | CC1=CCC23C(C1)OC(Br)(C=CC2(C)O)C3(C)C (configuration not stated) | – | > 100 µM | – | > 100 µM | > 100 | > 100 µM | – | – | > 100 | –
31 | Nc1c(C(=O)Nc2ccccc2)[n+]([O-])c2ccccc2[n+]1[O-] | 34.7 µM | 32.2 µM | 28.1 µM | 26.3 µM | 40.4 | 26.8 µM | – | – | 32.6 | –
32 | c1ccc2c(c1)[nH]c1cnc3c4cccnc4[nH]c3c12 | – | 31.5 µM | 35.5 µM | 36.7 µM | 46.6 | 37.4 µM | – | – | – | –
